Earlier results on 76 substances are cited in US20250231185A1, “Coronavirus T Cell Epitopes, Megapools and Uses Thereof” (La Jolla Institute for Immunology, priority 2021, published 2025).

In one data set the test system is CD8+ T cells. The settings on record: CD8R (D) megapool epitopes; dominant = recognized by 3 or more donors/different studies; cited from earlier work.
As for 1750 (NLWNTFTRL) [compound 1750], the Dominant entry is recorded as “Yes (more dominant epitopes are defined by being recognized by 3 or more donors/different studies)”. Consider 1766 (SAPPAQYEL) [compound 1766], for which the Dominant entry is reported as “Yes (more dominant epitopes are defined by being recognized by 3 or more donors/different studies)”.

As for 1811 (QLRARSVSPK) [compound 1811], the Dominant result was “Yes (more dominant epitopes are defined by being recognized by 3 or more donors/different studies)”. For the substance 1762 (PTDNYITTY) [compound 1762], the Dominant entry is “Yes (more dominant epitopes are defined by being recognized by 3 or more donors/different studies)”. As to 1668 (GTITVEELK) [compound 1668], the Dominant entry was “Yes (more dominant epitopes are defined by being recognized by 3 or more donors/different studies)”. In the case of 1687 (KMKDLSPRW) [compound 1687], the Dominant entry is “Yes (more dominant epitopes are defined by being recognized by 3 or more donors/different studies)”. Regarding 1798 (YTELEPPCRF) [compound 1798], the Dominant entry is “Yes (more dominant epitopes are defined by being recognized by 3 or more donors/different studies)”. With 1817 (KLGSLVVRC) [compound 1817], the Dominant entry was “Yes (more dominant epitopes are defined by being recognized by 3 or more donors/different studies)”. As for 1816 (IQYIDIGNY) [compound 1816], the Dominant entry was “Yes (more dominant epitopes are defined by being recognized by 3 or more donors/different studies)”.

Turning to 1709 (LPAADLDDF) [compound 1709], the Dominant entry was “Yes (more dominant epitopes are defined by being recognized by 3 or more donors/different studies)”. Turning to 1686 (RIRGGDGKMK) [compound 1686], the Dominant entry is “Yes (more dominant epitopes are defined by being recognized by 3 or more donors/different studies)”. Take 1744 (IEYPIIGDEL) [compound 1744]: the Dominant result is “Yes (more dominant epitopes are defined by being recognized by 3 or more donors/different studies)”. On to 1761 (FGDDTVIEV) [compound 1761], for which the Dominant entry was “Yes (more dominant epitopes are defined by being recognized by 3 or more donors/different studies)”. On to 1769 (ILFTRFFYV) [compound 1769], for which the Dominant result is listed as “Yes (more dominant epitopes are defined by being recognized by 3 or more donors/different studies)”.

1738 (VYIGDPAQL) [compound 1738]: the Dominant entry is on record as “Yes (more dominant epitopes are defined by being recognized by 3 or more donors/different studies)”. For 1726 (RILGAGCFV) [compound 1726], the Dominant result was “Yes (more dominant epitopes are defined by being recognized by 3 or more donors/different studies)”. For the substance 1802 (IPIQASLPF) [compound 1802], the Dominant entry is “Yes (more dominant epitopes are defined by being recognized by 3 or more donors/different studies)”. As for 1717 (KLFDRYFKY) [compound 1717], the Dominant entry is “Yes (more dominant epitopes are defined by being recognized by 3 or more donors/different studies)”. In the case of 1683 (KFPRGQGVPI) [compound 1683], the Dominant result is listed as “Yes (more dominant epitopes are defined by being recognized by 3 or more donors/different studies)”. Regarding 1768 (ASMPTTIAK) [compound 1768], the Dominant entry was “Yes (more dominant epitopes are defined by being recognized by 3 or more donors/different studies)”.

The same data set, now with this note: CD8RE megapool peptides (non-spike SARS-CoV-2 antigens); dominant epitope Yes/No; cited from earlier work.
Take 2963 (LYLQYIRKL) [compound 2963]: the Dominant result is listed as “Yes (more dominant epitopes are defined by being recognized by 3 or more donors/different studies)”.

Take 2988 (MLWCKDGHV) [compound 2988]: the Dominant entry is listed as “Yes (more dominant epitopes are defined by being recognized by 3 or more donors/different studies)”. In the case of 2946 (VLSEARQHL) [compound 2946], the Dominant entry is listed as “Yes (more dominant epitopes are defined by being recognized by 3 or more donors/different studies)”. As to 3052 (KLGSLVVRC) [compound 3052], the Dominant entry is “Yes (more dominant epitopes are defined by being recognized by 3 or more donors/different studies)”. On to 2972 (SSNVANYQK) [compound 2972], for which the Dominant result is “Yes (more dominant epitopes are defined by being recognized by 3 or more donors/different studies)”. For 2940 (MEVTPSGTWL) [compound 2940], the Dominant result was “Yes (more dominant epitopes are defined by being recognized by 3 or more donors/different studies)”. Turning to 2933 (KPRQKRTAT) [compound 2933], the Dominant result is “Yes (more dominant epitopes are defined by being recognized by 3 or more donors/different studies)”. For 2918 (KFPRGQGVPI) [compound 2918], the Dominant result is “Yes (more dominant epitopes are defined by being recognized by 3 or more donors/different studies)”. As to 2993 (KTIQPRVEK) [compound 2993], the Dominant entry is “Yes (more dominant epitopes are defined by being recognized by 3 or more donors/different studies)”. Take 3023 (SMWALIISV) [compound 3023]: the Dominant result is given as “Yes (more dominant epitopes are defined by being recognized by 3 or more donors/different studies)”. As for 2970 (VYRGTTTYKL) [compound 2970], the Dominant result is recorded as “Yes (more dominant epitopes are defined by being recognized by 3 or more donors/different studies)”. On to 2983 (MMISAGFSL) [compound 2983], for which the Dominant result was “Yes (more dominant epitopes are defined by being recognized by 3 or more donors/different studies)”.

On to 2990 (KMQRMLLEK) [compound 2990], for which the Dominant result was “Yes (more dominant epitopes are defined by being recognized by 3 or more donors/different studies)”.

The same data set, now with this note: SARS-CoV-2-derived CD8 epitopes; dominant = recognized by 3 or more donors/different studies; cited from earlier work.
As for 696 (FADDLNQLTGY) [compound 696], the Dominant entry is “Yes (more dominant epitopes are defined by being recognized by 3 or more donors/different studies)”. In the case of 584 (FGDDTVIEV) [compound 584], the Dominant entry is reported as “Yes (more dominant epitopes are defined by being recognized by 3 or more donors/different studies)”. On to 539 (GMSRIGMEV) [compound 539], for which the Dominant result was “Yes (more dominant epitopes are defined by being recognized by 3 or more donors/different studies)”.

The data set is the same for the next values; noted with them: SARS-CoV-2 Ag S; T cell type recognizing the epitope; cited from earlier work.
As to 1378 (SFIEDLLF) [compound 1378], the Restriction entry is given as “CD8”.

1414 (RLQSLQTY) [compound 1414]: the Restriction result was “CD8”. For 1412 (ITGRLQSLQTY) [compound 1412], the Restriction entry is given as “CD8”.

For the substance 1385 (LLTDEMIAQY) [compound 1385], the Restriction entry is listed as “CD8”. Consider 1395 (FAMQMAYRF) [compound 1395], for which the Restriction entry was “CD8”. Take 1419 (SKRVDFCGKGY) [compound 1419]: the Restriction result is recorded as “CD8”.

With 1409 (AEVQIDRL) [compound 1409], the Restriction entry is listed as “CD8”. With 1459 (YEQYIKWPW) [compound 1459], the Restriction entry is “CD8”. Turning to 1373 (EVFAQVKQIY) [compound 1373], the Restriction entry is on record as “CD8”.

For the substance 1359 (IPTNFTISV) [compound 1359], the Restriction entry is recorded as “CD8”. As for 1302 (GNYNYLYRLF) [compound 1302], the Restriction entry was “CD8”. In the case of 1312 (NGVEGFNCY) [compound 1312], the Restriction entry was “CD8”.

Consider 1465 (FDEDDSEPVL) [compound 1465], for which the Restriction entry is given as “CD8”.

The same data set, now with this note: T cell subset (CD4 or CD8) recognizing the SARS-CoV-2-derived epitope; cited from earlier work.
With 664 (YMSALNHTK) [compound 664], the Restriction result was “CD8”. For the substance 690 (NYYKKDNSY) [compound 690], the Restriction entry was “CD8”. In the case of 696 (FADDLNQLTGY) [compound 696], the Restriction entry is on record as “CD8”. Regarding 599 (VEVQPQLEM) [compound 599], the Restriction entry is given as “CD8”. As to 665 (MSALNHTKK) [compound 665], the Restriction result is reported as “CD8”. 584 (FGDDTVIEV) [compound 584]: the Restriction entry is reported as “CD8”.

In the case of 691 (YYKKDNSY) [compound 691], the Restriction result is listed as “CD8”.

In the case of 565 (TFNGECPNF) [compound 565], the Restriction result is on record as “CD8”.

On to 689 (EIDPKLDNY) [compound 689], for which the Restriction result is “CD8”. Take 507 (YGANKDGIIW) [compound 507]: the Restriction entry is given as “CD8”. For the substance 572 (VRSIFSRTL) [compound 572], the Restriction entry is recorded as “CD8”. 503 (YLGTGPEAGL) [compound 503]: the Restriction entry was “CD8”. With 506 (LPYGANKDGI) [compound 506], the Restriction entry is “CD8”.

Turning to 511 (GTRNPANNA) [compound 511], the Restriction entry is recorded as “CD8”. In the case of 539 (GMSRIGMEV) [compound 539], the Restriction entry was “CD8”.

Staying with this data set, now noted: T cell type (CD4 or CD8) recognizing the SARS-CoV-2 epitope; cited from earlier work.
For 1035 (FAIGLALYY) [compound 1035], the Restriction entry is on record as “CD8”. Take 1043 (RPQIGVVREF) [compound 1043]: the Restriction entry was “CD8”. Consider 908 (AWPLIVTAL) [compound 908], for which the Restriction entry is recorded as “CD8”. As for 1006 (YLPYPDPSRIL) [compound 1006], the Restriction result is “CD8”. As to 1048 (EEAIRHVRAW) [compound 1048], the Restriction result is given as “CD8”. 924 (FDIYNDKVAGF) [compound 924]: the Restriction result was “CD8”. Regarding 1059 (YKIEELFYSY) [compound 1059], the Restriction entry is on record as “CD8”.

For 954 (NLHSSRLSF) [compound 954], the Restriction result was “CD8”. 1013 (LTNDNTSRYW) [compound 1013]: the Restriction result is listed as “CD8”. Take 1062 (FTDGVCLFW) [compound 1062]: the Restriction result is listed as “CD8”.

Take 907 (SEISMDNSPNL) [compound 907]: the Restriction result was “CD8”. For the substance 1032 (VPQEHYVRI) [compound 1032], the Restriction result was “CD8”.

For 1060 (KIEELFYSY) [compound 1060], the Restriction result was “CD8”. Consider 900 (TYKNTCDGTTF) [compound 900], for which the Restriction result was “CD8”.

With 1077 (VVQQLPETY) [compound 1077], the Restriction result is “CD8”.
